# Laboratory results from patent publication US6962713B2, “Spot-on formulations for combating parasites” (Merial, priority 1919, dated 2005).
# Several values for one entry are separate records, joined by “and”; a condition that tells them apart may be missing. Equal values may be shown once.
# How the values were obtained:
# [1] = tested on: heartworms; conditions: Cardomec oral, 6 μg.kg^−1 of ivermectin, dog; known; cited from earlier work
# [2] = ivermectin, cited from earlier work
# [3] = tested on: gastrointestinal nematodes; conditions: Ivomec subcutaneous, 400 μg.kg^−1 of ivermectin, dog; known; cited from earlier work
# [4] = Plasma kinetics of ivermectin after subcutaneous injection of Ivomec to dogs; format: in vivo, dog; conditions: for Plasma concentrations of ivermectin / Plasma concentrations of ivermectin, Mean: Ivomec subcutaneous 400 μg.kg^−1, dogs; for Plasma concentrations of ivermectin: individual dogs
# Protocol: This study was conducted in order to assess the pharmacokinetics of ivemectin in the dog after subcutaneous administration of Ivomec® at a dose of 400 μg.kg^−1 of ivermectin which is known to be effective on gastrointestinal nematodes and to have a route of reference for further development.
# Five male Beagle dogs were injected a subcutaneous dose of 400 μg.kg^−1 of ivermectin. Blood samples were collected at intervals up to 56 days post-dosing. The determination of ivermectin in dog plasma was carried out by HPLC, using fluorescence detection after derivatization. The limit of quantification was 100 pg.ml^−1.
# [5] = Ivomec subcutaneous 400 μg.kg^−1, 5 dogs, mean
substance,measurement,setting,value
ivermectin,effective on heartworms,[1],100%
same,"tmax, literature data",[2]; food state of dogs not specified,2 to 4 h
same,"AUC, mean literature values",[2],107.318 ng·h/mL
same,"Cmax, mean literature values",[2],more than 2000 pg. ml^−1
same,effective on gastrointestinal nematodes,[3],effective
same,"AUC(0-t), Mean",[4]; [5],226900 pg·days/mL
same,"AUC(0-∞), Mean",[4]; [5],227897 pg·days/mL
same,"Cmax, Mean",[4]; [5],28.935 ng/mL and ~30 ng/mL
same,Plasma concentrations of ivermectin,[4]; 0,BLQ (The limit of quantification was 100 pg.ml^−1)
same,"Plasma concentrations of ivermectin, Mean","[4]; 0, mean of 5 dogs",BLQ (The limit of quantification was 100 pg.ml^−1)
same,Plasma concentrations of ivermectin,[4]; 0.25 h,275 pg.ml^−1 and BLQ (The limit of quantification was 100 pg.ml^−1) (2×) and 158 pg.ml^−1 and 1123 pg.ml^−1
same,"Plasma concentrations of ivermectin, Mean","[4]; 0.25 h, mean of 5 dogs (BLQ taken as 0)",0.311 ng/mL
same,Plasma concentrations of ivermectin,[4]; 0.5 h,531 pg.ml^−1 and BLQ (The limit of quantification was 100 pg.ml^−1) (2×) and 183 pg.ml^−1 and 1757 pg.ml^−1
same,"Plasma concentrations of ivermectin, Mean","[4]; 0.5 h, mean of 5 dogs (BLQ taken as 0)",0.494 ng/mL
same,Plasma concentrations of ivermectin,[4]; 1 h,952 pg.ml^−1 and BLQ (The limit of quantification was 100 pg.ml^−1) and 272 pg.ml^−1 and 1487 pg.ml^−1 and 257 pg.ml^−1
same,"Plasma concentrations of ivermectin, Mean","[4]; 1 h, mean of 5 dogs (BLQ taken as 0)",0.594 ng/mL
same,Plasma concentrations of ivermectin,[4]; 4 h,3148 pg/mL and 935 pg/mL and 2519 pg/mL and 2788 pg/mL and 1621 pg/mL
same,"Plasma concentrations of ivermectin, Mean","[4]; 4 h, mean of 5 dogs",2.202 ng/mL
same,Plasma concentrations of ivermectin,[4]; 10 h,9438 pg/mL and 2799 pg/mL and 7471 pg/mL and 6881 pg/mL and 2322 pg/mL
same,"Plasma concentrations of ivermectin, Mean","[4]; 10 h, mean of 5 dogs",5.782 ng/mL
same,Plasma concentrations of ivermectin,[4]; 24 h,19192 pg/mL and 9322 pg/mL and 25996 pg/mL and 13986 pg/mL and 7730 pg/mL
same,"Plasma concentrations of ivermectin, Mean","[4]; 24 h, mean of 5 dogs",15.245 ng/mL
same,Plasma concentrations of ivermectin,[4]; 32 h,21779 pg/mL and 11651 pg/mL and 28569 pg/mL and 18632 pg/mL and 11810 pg/mL
same,"Plasma concentrations of ivermectin, Mean","[4]; 32 h, mean of 5 dogs",18.488 ng/mL
same,Plasma concentrations of ivermectin,[4]; 48 h,26256 pg/mL and 18359 pg/mL and 33716 pg/mL and 27200 pg/mL and 21450 pg/mL
same,"Plasma concentrations of ivermectin, Mean","[4]; 48 h, mean of 5 dogs",25.396 ng/mL
same,Plasma concentrations of ivermectin,[4]; 56 h,23243 pg/mL and 18913 pg/mL and 33887 pg/mL and 20868 pg/mL and 22925 pg/mL
same,"Plasma concentrations of ivermectin, Mean","[4]; 56 h, mean of 5 dogs",23.967 ng/mL
same,Plasma concentrations of ivermectin,[4]; D 3,23145 pg/mL and 23181 pg/mL and 38453 pg/mL and 22367 pg/mL and 25089 pg/mL
same,"Plasma concentrations of ivermectin, Mean","[4]; D 3, mean of 5 dogs",26.447 ng/mL
same,Plasma concentrations of ivermectin,[4]; D 4,19498 pg/mL and 24875 pg/mL and 41257 pg/mL and 22550 pg/mL and 24955 pg/mL
same,"Plasma concentrations of ivermectin, Mean","[4]; D 4, mean of 5 dogs",26.627 ng/mL
same,Plasma concentrations of ivermectin,[4]; D 5,13068 pg/mL and 21883 pg/mL and 28398 pg/mL and 21501 pg/mL and 21333 pg/mL
same,"Plasma concentrations of ivermectin, Mean","[4]; D 5, mean of 5 dogs",21.237 ng/mL
same,Plasma concentrations of ivermectin,[4]; D 7,10892 pg/mL and 17800 pg/mL and 21415 pg/mL and 15434 pg/mL and 15695 pg/mL
same,"Plasma concentrations of ivermectin, Mean","[4]; D 7, mean of 5 dogs",16.247 ng/mL
same,Plasma concentrations of ivermectin,[4]; D 9,5662 pg/mL and 12098 pg/mL and 11892 pg/mL and 10889 pg/mL and 12769 pg/mL
same,"Plasma concentrations of ivermectin, Mean","[4]; D 9, mean of 5 dogs",10.662 ng/mL
same,Plasma concentrations of ivermectin,[4]; D 14,1924 pg/mL and 5269 pg/mL and 4248 pg/mL and 5752 pg/mL and 6285 pg/mL
same,"Plasma concentrations of ivermectin, Mean","[4]; D 14, mean of 5 dogs",4.696 ng/mL
same,Plasma concentrations of ivermectin,[4]; D 21,162 pg/mL and 1034 pg/mL and 625 pg/mL and 746 pg/mL and 903 pg/mL
